Experiment [1] concerns the target HPK1 (SLP76 phosphorylation at Ser376 in Jurkat and EL-4 cells) (Homo sapiens, UniProt Q92918). The format is cell-based. Particulars: αCD3/αCD28 Dynabeads stimulated cells, pSLP76 (Ser376) detection; read-out: HPK1 pSLP76 IC50. Summed up:
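Phospho-SLP76 (Ser376) in lysates measured by AlphaLISA for human Jurkat and by 19 h HTRF for mouse EL-4, giving % inhibition and IC50. Compounds applied 60 min before αCD3/αCD28 bead stimulation at 37 °C, lasting 15 min (Jurkat) or 30 min (EL-4).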

The target in experiment [2] is full-length human HPK1 (MAP4K1) (Homo sapiens (Human), UniProt Q92918). Description: HPK1 Kinase Assay (Biochemical Assay), ADP-Glo. Particulars: GST-HPK1 3.2 nM, 10 μM ATP, MBP substrate, read-out: HPK1 enzymatic IC50. Summed up:
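ADP-Glo luminescence after a 120-min kinase reaction gave percent inhibition and IC50. The enzyme was Sf21-expressed N-terminal GST full-length human HPK1 at 3.2 nM in HEPES pH 7.5 buffer with MgCl2, DTT, Brij-35 and BSA.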
(ADP-Glo turns the ADP formed in a reaction into a luminescent signal.)

The text below walks through data of patent publication US20240025922A1, “TETRAHYDROPYRIDO[3,4-d]PYRIMIDINES AS HPK1 INHIBITORS” (Merck Patent GmbH, priority 2022, published 2024).

Some results are limits rather than exact numbers.

full-length human HPK1 (MAP4K1), sequence (Q92918 whole entry): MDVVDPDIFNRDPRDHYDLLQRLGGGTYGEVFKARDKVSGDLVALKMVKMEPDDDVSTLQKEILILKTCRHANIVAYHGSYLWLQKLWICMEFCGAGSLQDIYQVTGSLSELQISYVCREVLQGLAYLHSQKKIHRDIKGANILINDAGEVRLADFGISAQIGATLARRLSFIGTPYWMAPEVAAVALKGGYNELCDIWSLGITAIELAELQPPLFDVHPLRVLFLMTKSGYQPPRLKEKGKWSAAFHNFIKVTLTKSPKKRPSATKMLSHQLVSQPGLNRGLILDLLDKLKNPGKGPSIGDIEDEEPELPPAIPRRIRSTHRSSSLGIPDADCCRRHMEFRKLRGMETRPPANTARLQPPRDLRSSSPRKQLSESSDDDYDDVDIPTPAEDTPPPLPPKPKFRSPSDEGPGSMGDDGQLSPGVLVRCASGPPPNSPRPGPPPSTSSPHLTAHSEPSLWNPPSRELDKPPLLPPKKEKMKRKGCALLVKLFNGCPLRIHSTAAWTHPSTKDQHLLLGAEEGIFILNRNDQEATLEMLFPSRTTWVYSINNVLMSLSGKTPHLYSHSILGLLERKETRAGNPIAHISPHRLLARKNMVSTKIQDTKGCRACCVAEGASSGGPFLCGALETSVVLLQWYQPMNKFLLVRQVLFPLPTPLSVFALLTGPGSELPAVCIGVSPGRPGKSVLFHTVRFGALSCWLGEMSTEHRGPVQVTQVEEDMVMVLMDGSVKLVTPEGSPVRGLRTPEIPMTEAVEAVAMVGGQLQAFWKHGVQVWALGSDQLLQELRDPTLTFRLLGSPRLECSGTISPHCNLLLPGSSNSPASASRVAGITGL
HPK1 (SLP76 phosphorylation at Ser376 in Jurkat and EL-4 cells), sequence (Q92918 whole entry, looked up): as the sequence (Q92918 whole entry) above

Broadly, the IC50 is the concentration that gives 50% inhibition. As for `Cc1c(N2CCc3cnc(Nc4ccc(C5CCN(C)CC5)c(CC#N)c4)nc3C2)cnc2c1NCCO2` [Example 112, 2-(5-((7-(8-methyl-2,3-dihydro-1H-pyrido[2,3-b][1,4]oxazin-7-yl)-5,6,7,8-tetrahydropyrido[3,4-d]pyrimidin-2-yl)amino)-2-(1-methylpiperidin-4-yl)phenyl)acetonitrile], the IC50 in experiment [1] is 500 to 1000 nM; in experiment [2], less than 100 nM.

Regarding `COC1CCN(c2ccc(Nc3ncc4c(n3)CN(c3cnc5c(c3C)NCCO5)CC4)cc2)CC1` [Example 113, N-(4-(4-methoxypiperidin-1-yl)phenyl)-7-(8-methyl-2,3-dihydro-1H-pyrido[2,3-b][1,4]oxazin-7-yl)-5,6,7,8-tetrahydropyrido[3,4-d]pyrimidin-2-amine], the results for the IC50 in experiment [1] and in experiment [2] were 500 to 1000 nM and less than 100 nM, respectively.

Turning to `Cc1c(N2CCc3cnc(Nc4cnc5c(c4)CN(C)CC5)nc3C2)cnc2c1NCCO2` [Example 115, 7-(8-methyl-2,3-dihydro-1H-pyrido[2,3-b][1,4]oxazin-7-yl)-N-(6-methyl-5,6,7,8-tetrahydro-1,6-naphthyridin-3-yl)-5,6,7,8-tetrahydropyrido[3,4-d]pyrimidin-2-amine], the IC50 is 500 to 1000 nM in experiment [1] and less than 100 nM in experiment [2].

Consider `Cc1c(N)cncc1N1CCc2cnc(Nc3cnc4c(c3)CN(C)CC4)nc2C1` [Example 116, 7-(5-amino-4-methylpyridin-3-yl)-N-(6-methyl-5,6,7,8-tetrahydro-1,6-naphthyridin-3-yl)-5,6,7,8-tetrahydropyrido[3,4-d]pyrimidin-2-amine], for which the IC50 in experiment [1] is greater than 1000 nM; in experiment [2], less than 100 nM.

In the case of `Cc1ccncc1N1CCc2cnc(Nc3cnc4c(c3)CN(C)CC4)nc2C1` [Example 118, N-(6-methyl-5,6,7,8-tetrahydro-1,6-naphthyridin-3-yl)-7-(4-methylpyridin-3-yl)-5,6,7,8-tetrahydropyrido[3,4-d]pyrimidin-2-amine], the IC50 in experiment [1] was greater than 1000 nM; in experiment [2], less than 100 nM.

In the case of `Cc1cnsc1N1CCc2cnc(Nc3cnc4c(c3)CN(C)CC4)nc2C1` [Example 119, N-(6-methyl-5,6,7,8-tetrahydro-1,6-naphthyridin-3-yl)-7-(4-methylisothiazol-5-yl)-5,6,7,8-tetrahydropyrido[3,4-d]pyrimidin-2-amine], the IC50 in experiment [1] is greater than 1000 nM; in experiment [2], less than 100 nM.

On to `Cc1cc(Nc2ncc3c(n2)CN(c2cnc4c(c2Cl)NCCO4)CC3)ccc1NC(=O)CN1CCC1` [Example 121, 2-(azetidin-1-yl)-N-(4-((7-(8-chloro-2,3-dihydro-1H-pyrido[2,3-b][1,4]oxazin-7-yl)-5,6,7,8-tetrahydropyrido[3,4-d]pyrimidin-2-yl)amino)-2-methylphenyl)acetamide], for which the IC50 in experiment [1] was less than 500 nM; in experiment [2], less than 100 nM.

With `Cc1cc(Nc2cc3c(cn2)CCN(c2cnc4c(c2Cl)NCCO4)C3)ccc1NC(=O)CN1CCOCC1` [Example 122, N-(4-((6-(8-chloro-2,3-dihydro-1H-pyrido[2,3-b][1,4]oxazin-7-yl)-5,6,7,8-tetrahydro-2,6-naphthyridin-3-yl)amino)-2-methylphenyl)-2-morpholinoacetamide], the IC50 in experiment [1] is 500 to 1000 nM; in experiment [2], less than 100 nM.

As for `Cc1c(N2CCc3cnc(Nc4ccc(NCCN(C)C)c(F)c4)cc3C2)cnc2c1NCCO2` [Example 124, N1-(2-(dimethylamino)ethyl)-2-fluoro-N4-(6-(8-methyl-2,3-dihydro-1H-pyrido[2,3-b][1,4]oxazin-7-yl)-5,6,7,8-tetrahydro-2,6-naphthyridin-3-yl)benzene-1,4-diamine], the IC50 in experiment [1] was 500 to 1000 nM; in experiment [2] it was less than 100 nM.

As to `Cc1c(N2CCc3cnc(Nc4ccc(CN5CCCC5)cc4)nc3C2)cnc2c1NCCO2` [Example 125, 7-{8-methyl-1H,2H,3H-pyrido[2,3-b][1,4]oxazin-7-yl}-N-{4-[(pyrrolidin-1-yl)methyl]phenyl}-5H,6H,7H,8H-pyrido[3,4-d]pyrimidin-2-amine], the IC50 was greater than 1000 nM in experiment [1] and less than 100 nM in experiment [2].
